Measured values taken from ChEMBL document CHEMBL6153033, “Design and synthesis of N-(3-cyanothiophen-2-yl)-2-phenoxyacetamide-based α-glucosidase inhibitors” (Bioorg Med Chem Lett, 2025).
Converted amounts (≈) assume the structure as drawn. Blank lines part the entries; values can stand above or below the molecule they belong to.

Tests used:
Alpha glucosidase [1] = molecular target: T1, Alpha glucosidase (Homo sapiens, UniProt O43451+P10253+P14410+Q2M2H8); experiment: Inhibition of alpha-glucosidase (unknown origin) assessed as inhibition rate at 100 uM relative to control; format: protein assay
Alpha glucosidase [2] = molecular target: T1, Alpha glucosidase; experiment: Inhibition of alpha-glucosidase (unknown origin); format: protein assay
[3] = Aqueous solubility of compound; format: physicochemical
[4] = Stability in mouse plasma assessed as compound remaining parent compound after 1 hrs; format: ADME, cell-free; conditions: read-out: Stability
[5] = Stability in mouse plasma assessed as compound remaining parent compound after 6 hrs; format: ADME, cell-free; conditions: read-out: Stability
[6] = Stability in mouse plasma assessed as compound remaining parent compound after 0.5 hrs; format: ADME, cell-free; conditions: read-out: Stability
[7] = Inhibition of alpha-amylase (unknown origin); design: species or system Homo sapiens
[8] = Selectivity index, ratio of IC50 for alpha-amylase (unknown origin) to IC50 for alpha-glucosidase (unknown origin)
[9] = Cytotoxicity against human LO2 cells by MTT assay; format: toxicity, cell-based, L02
Alpha glucosidase [10] = molecular target: T1, Alpha glucosidase; experiment: Binding affinity to alpha-glucosidase (unknown origin) assessed as decreased in Vmax using p-nitrophenyl glucopyranoside as substrate at 1 to 16 uM by Lineweaver-Burk plot analysis; format: protein assay; conditions: dose 1-16 µM
Alpha glucosidase [11] = molecular target: T1, Alpha glucosidase; experiment: Binding affinity to alpha-glucosidase (unknown origin) assessed as inhibition constant; format: protein assay

- inhibition (Alpha glucosidase [1]): 70.4%
- IC50 (Alpha glucosidase [2]): 14.09 µM
SMILES: COc1cc(C=O)ccc1OCC(=O)Nc1sc2c(c1C#N)CCCC2

- inhibition (Alpha glucosidase [1]): 73.9%
- IC50 (Alpha glucosidase [2]): 15.32 µM
- solubility [3]: 28.6 µM (≈ 10.6 µg/mL)
- remaining at 1 h [4]: 51.4%
- remaining at 6 h [5]: 28.5%
- remaining at 0.5 h [6]: 78%
SMILES: COc1ccc(CNC(=O)Nc2sc3c(c2C#N)CCCC3)c(OC)c1

- inhibition (Alpha glucosidase [1]): 67.3%
- IC50 (Alpha glucosidase [2]): 32.38 µM
SMILES: COc1cc(C=O)ccc1OCC(=O)Nc1sc2c(c1C#N)CCOC2

- inhibition (Alpha glucosidase [1]): 69.8%
- IC50 (Alpha glucosidase [2]): 60.25 µM
SMILES: COC(=O)C1CCCc2sc(NC(=O)COc3ccc(C=O)cc3OC)c(C#N)c21 (centres undefined)

- IC50 (Alpha glucosidase [2]): 35.55 µM
SMILES: Cc1cc(C=O)ccc1OCC(=O)Nc1sc2c(c1C#N)CCC(C)C2 (centres undefined)

- IC50 (Alpha glucosidase [2]): > 50 µM
SMILES: Cc1cccc(C=O)c1OCC(=O)Nc1sc2c(c1C#N)CCC(C)C2 (centres undefined)

- IC50 (Alpha glucosidase [2]): 7.17 µM
- IC50 [7]: 65.7 µM
- Selectivity Index [8]: 9.2
- solubility [3]: 22.2 µM (≈ 8.53 µg/mL)
- remaining at 1 h [4]: 42.7%
- remaining at 6 h [5]: 30%
- remaining at 0.5 h [6]: 57%
SMILES: COc1ccc(C=O)c(OCC(=O)Nc2sc3c(c2C#N)CCC(C)C3)c1 (centres undefined)
- CC50 [9]: > 200 µM

- IC50 (Alpha glucosidase [2]): 20.85 µM
SMILES: CC1CCc2c(sc(NC(=O)COc3cccc(C=O)c3)c2C#N)C1 (centres undefined)

- inhibition (Alpha glucosidase [1]): 70.4%
- IC50 (Alpha glucosidase [2]): 35.6 µM
SMILES: COc1cc(C=O)ccc1OCC(=O)Nc1sc2c(c1C#N)CCC2

- IC50 (Alpha glucosidase [2]): 24.28 µM
SMILES: CC1CCc2c(sc(NC(=O)COc3ccc(C=O)cc3)c2C#N)C1 (centres undefined)

- inhibition (Alpha glucosidase [1]): 93.4%
- IC50 (Alpha glucosidase [2]): 7.42 µM
- IC50 [7]: 51.7 µM
- Selectivity Index [8]: 6.97
- solubility [3]: 28.6 µM (≈ 11 µg/mL)
- remaining at 1 h [4]: 72.9%
- remaining at 6 h [5]: 33.6%
- remaining at 0.5 h [6]: 83.3%
SMILES: COc1cc(C=O)ccc1OCC(=O)Nc1sc2c(c1C#N)CCC(C)C2 (centres undefined)
- CC50 [9]: > 200 µM

- IC50 (Alpha glucosidase [2]): 2.11 µM
- IC50 [7]: 36.9 µM
- Selectivity Index [8]: 17.5
- solubility [3]: 25 µM (≈ 10.4 µg/mL)
- remaining at 1 h [4]: 61.3%
- remaining at 6 h [5]: 50.6%
- remaining at 0.5 h [6]: 84.3%
- Activity (Alpha glucosidase [10]): Dose-dependent-effect
- Ki (Alpha glucosidase [11]): 5.56 µM
SMILES: COc1cc(C=O)cc(OCC(=O)Nc2sc3c(c2C#N)CCC(C)C3)c1OC (racemic)
- CC50 [9]: > 200 µM

- IC50 (Alpha glucosidase [2]): 4.69 µM
- IC50 [7]: 38.5 µM
- Selectivity Index [8]: 8.19
- solubility [3]: 25 µM (≈ 9.61 µg/mL)
- remaining at 1 h [4]: 35%
- remaining at 6 h [5]: 0%
- remaining at 0.5 h [6]: 76.5%
SMILES: COc1ccc(C=O)cc1OCC(=O)Nc1sc2c(c1C#N)CCC(C)C2 (centres undefined)
- CC50 [9]: > 200 µM

- IC50 (Alpha glucosidase [2]): > 50 µM
SMILES: Cc1ccc(C=O)c(OCC(=O)Nc2sc3c(c2C#N)CCC(C)C3)c1 (centres undefined)

- inhibition (Alpha glucosidase [1]): 7.31%
SMILES: COc1cc(C=O)ccc1OCC(=O)Nc1sc2c(c1C#N)CCCCC2

- IC50 (Alpha glucosidase [2]): > 50 µM
SMILES: CC1CCc2c(sc(NC(=O)COc3ccccc3C=O)c2C#N)C1 (centres undefined)

- inhibition (Alpha glucosidase [1]): 61.5%
- IC50 (Alpha glucosidase [2]): 69.78 µM
SMILES: CCOC(=O)C1CCc2sc(NC(=O)COc3ccc(C=O)cc3OC)c(C#N)c21 (centres undefined)

- inhibition (Alpha glucosidase [1]): 45.6%
SMILES: COc1cc(C=O)ccc1OCC(=O)Nc1sc2c(c1C#N)CCCC2=O

- inhibition (Alpha glucosidase [1]): 15.7%
SMILES: COc1cc(C=O)ccc1OCC(=O)Nc1sc2c(c1C#N)CCC1(C2)OCCO1

- IC50 [7]: 70 µM
SMILES: C[C@H]1O[C@H](O[C@H]2[C@H](O)[C@@H](O)[C@@H](O[C@H]3[C@H](O)[C@@H](O)C(O)O[C@@H]3CO)O[C@@H]2CO)[C@H](O)[C@@H](O)[C@@H]1N[C@H]1C=C(CO)[C@@H](O)[C@H](O)[C@H]1O (some centres undefined) [ACARBOSE]
- CC50 [9]: > 200 µM

- inhibition (Alpha glucosidase [1]): 86.5%
- IC50 (Alpha glucosidase [2]): 10.35 µM
SMILES: COc1cc(C=O)ccc1OCC(=O)Nc1sc2c(c1C#N)CCC(O)C2 (centres undefined)
